For assay [1], the target named is APE-1 activity in T98G cell nuclear lysates (Homo sapiens (Human), UniProt P27695). The experiment in a line: Molecular beacon assay in T98G cell nuclear extracts. It counts as biochemical. The method, then: Isolation and Assay of APE-1 Protein from Nuclear Extracts of Glioma Cells. Human glioblastoma cells (T98G) were maintained in growth medium, i.e., Eagle's Minimum Essential Medium (EMEM) with 10% fetal bovine serum (FBS), […] gentamycin, 1×MEM non-essential amino acids and 1 mM sodium pyruvate. Cells were harvested by Trypsin-EDTA treatment, washed with 1×PBS and nuclear proteins isolated using the CelLytic NuCLEAR Extraction kit (Sigma-Aldrich) as per manufacturer's instructions. Isolated nuclear proteins were estimated colorimetrically (BCA protein assay) and stored at −80° C. (long term) or at −20° C. during regular use. To assay APE-1 activity in T98G cells, nuclear extracts were serially diluted in 10 mM HEPES, 50 mM KCl, 1 mM DTT, 20% (v/v) glycerol and the activities measured via the molecular beacon assay (as described above). […] EC2 nM of nuclear extracts was incubated with 2 to 500 nM hairpin DNA substrate and the V0 measured for each value of [S]. Finally, the apparent KM* was deduced using the software algorithm in Prism (as described previously), and the KM* was used to determine the apparent Ki*. Inhibition of EC2 nM APE-1 activity by the inhibitors was assayed via the molecular beacon assay (described above).
Inhibition of APE-1 Activity in Nuclear Lysates. The ability of 1-5 and 8 to block APE-1 endonuclease activity in a complex mixture of proteins from T98G cell nuclear lysates was tested using the molecular beacon assay. The APE-1 activity in the lysates was standardized to give ˜90% turnover of 25 nM substrate in 10 min.

Assay [2] concerns the target APE-1 (Homo sapiens (Human), UniProt P27695). The experiment in a line: Fluorescence binding of 4 to APE-1 protein. The settings on record: 1 μM APE-1, fluorescence increase. The method, then: Fluorescence and UV Spectrometry Binding Studies. The fluorescence spectra were measured at room temperature on a Cary Eclipse fluorescence spectrometer (Varian, Palo Alto, Calif.). The fluorescence properties of 1 and 4 were measured in 10 mM HEPES, 0.5 mM MgCl2, 100 mM KCl, 100 mM NaCl, 2% glycerol, in absence or presence of wild type (unmodified) hairpin DNA (5′-[…]-3′) or THF-modified hairpin DNA (5′-CGAXTTCGCAGGACCGAATTCG-3′) or APE-1 protein. A solution of 0.5 μM of either DNA sequence was titrated against 1-10 μM ethidium bromide (EtBr) to determine saturation of EtBr by fluorescence (530 nm excitation with 610 nm emission) and the subsequent displacement of EtBr (4 μM) by 1-20 μM 1 or 4 was also assayed. The APE protein-inhibitor binding fluorescence was assayed by titrating 0.1-20 μM of 4 against 1 μM of APE-1 protein.
Interaction of Inhibitors with APE-1 Protein. To establish whether there is a direct interaction between an inhibitor and APE-1, the fluorescence spectra of 4 was determined in the absence and presence of increasing amounts of the protein.

Assay [3] has as its system T98G cells. As to the kind of experiment: Short term (72 h) MTS cytotoxicity assay. Type of assay: cell-based, human. On the procedure:
Cytotoxic Effects of APE-1 Inhibitors on Cultured Human Glioblastoma (T98G) Cells. Human glioblastoma cells (T98G) were maintained in growth medium as described above. […] The cells were allowed to attach and grow for 24 h, and then treated with serial dilutions of the drug for 72 h. After treatment, viable cells were measured by an MTS assay using the CellTiter 96 AQueous kit (Promega) as per manufacturer's instructions. […] The cells were allowed to attach and grow for 24 h and treated with serial dilutions of the drug for 240 h. After treatment, viable cells were measured using the CyQUANT cell proliferation assay kit (Invitrogen) as per manufacturer's instructions.
(§1) Toxicity. It was assumed that inhibition of APE-1 activity would be lead to toxicity since genetic deletion of the protein is lethal to cells. […] The toxicities were also determined in combination with the DNA minor groove methylating agent, MeLex. MeLex efficiently and selectively generates N3-methyladenine, which is converted into an abasic site by a BER glycosylase and/or hydrolytic depurination. The T98G cell line is relatively resistant to DNA damaging anticancer agents due to expression of multiple drug resistance proteins and O^6-alkylguanine-DNA alkyltransferase. […] A goal of the development of APE-1 inhibitors is to determine if they can be used to enhance the activity of DNA alkylating agents.
A general note: Tetrazolium assays rely on reduction of a dye to a coloured formazan, in cell work by metabolically active cells.

Assay [4] has as its system T98G cells. As to the kind of experiment: Potentiation of MeLex cytotoxicity, long term (10 d) CyQUANT assay. It counts as cell-based, human. The method, then: Cytotoxic Potentiation of Various DNA Damaging Agents. T98G cells maintained in growth medium were resuspended in fresh growth medium and seeded into 96-well plates at 2000 cells/well (short term cytotoxicity) or 100 cells/well (long term cytotoxicity) as described in the previous section. After 24 h, the cells were treated with serial dilutions of various DNA damaging drugs in absence or presence of APE-1 inhibitors. At the end of the treatment period, cell survival was assayed using CellTiter 96 AQueous or CyQUANT kits for the short- and long-term studies respectively.
as §1

The test system of assay [5] is MOLT-4. As to the kind of experiment: NCI 60 cell line growth inhibition. Type of assay: cell-based. The settings on record: Homo sapiens; MOLT-4 line.
The subject of assay [6] is SK-MEL-5 melanoma cells. The experiment in a line: Combination of APE1 inhibitor 4 with approved anticancer drugs, NCI60 cell line assay. Type of assay: cell-based. The settings on record: preliminary screen. The text has this: FIG. 5. An example of the enhanced activity of vemurafenib in combination with APE1 inhibitor 4 in SK-MEL-5 melanoma cells. Matric controls are run in singlet on each matrix and compared to replicate (n=10) controls for vemurafenib and 4.
APE1 Inhibitor 4 Enhances the Toxicity of Anticancer Drugs in the NCl60 Cell Line Assay—In a preliminary screen using 10 randomly selected cell lines, the effect of APE1 inhibitor 4 on the growth of 20 recently approved non-genotoxic anticancer drugs was assayed.

Molecules are shown by their SMILES.

Sequence of APE-1 activity in T98G cell nuclear lysates (P27695 whole entry, stated change not applied): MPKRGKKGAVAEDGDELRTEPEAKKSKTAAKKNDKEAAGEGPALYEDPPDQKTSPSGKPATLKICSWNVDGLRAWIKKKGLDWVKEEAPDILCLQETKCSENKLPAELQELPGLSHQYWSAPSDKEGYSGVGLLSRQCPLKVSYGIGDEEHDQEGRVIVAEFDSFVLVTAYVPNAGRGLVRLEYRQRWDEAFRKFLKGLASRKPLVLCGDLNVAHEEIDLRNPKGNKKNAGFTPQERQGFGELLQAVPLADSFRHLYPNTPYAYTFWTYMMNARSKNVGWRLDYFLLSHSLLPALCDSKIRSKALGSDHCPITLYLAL
Sequence of APE-1 (P27695 whole entry): as the sequence (P27695 whole entry, stated change not applied) above

Usually Ki stands for the dissociation constant of the complex between target and ligand, obtained from inhibition or displacement. As usually defined, the Kd is the free concentration of one partner at which half of the binding sites on the other are occupied at equilibrium, for simple one-to-one binding. Lower therefore signals higher affinity. Broadly, the GI50 is the concentration at which growth is held to half of that of the control. Consider `CCn1c2ccccc2c2cc(/C=N/Nc3cc(C)nc4cc5c(cc34)OCO5)ccc21` [Compound 4], for which affinity in assay [1] was put at a Ki of 210 nM. Besides, binding in assay [2] was characterised by a dissociation constant (Kd) of 6150 nM. Moreover, in assay [3] (72 h MTS assay), the LD10 concentration was found to be 0.25 µM. In assay [3] (MTS assay, T98G), the LD50 stood at 960 nM. Also, in assay [4], the “LD50 of MeLex in the presence of LD10 concentration of inhibitor” value worked out at 1.6 µM and the “maximum potentiation of MeLex” value is on record as “approximately 5 fold”. This compound came in with a GI50 in assay [5] of 133 nM. In assay [6], the “effect in combination with Vemurafenib” value was “>additive”.
